A word on the IC50: it is the concentration that gives 50% inhibition. Read a high IC50 as weaker potency.

One data set relates to C. botulinum CECT551. Kind of data set: microbe, parasite or virus in culture. It is filed as cell-based. To be noted: Clostridium botulinum, CECT551, 24 h, read-out: Minimal Inhibition Concentration (MIC) C. botulinum CECT551.
In another data set the test system is C. difficile CECT531. As to the kind of experiment: microbe, parasite or virus in culture. It is filed as cell-based, Clostridioides difficile. To be noted: Clostridioides difficile, CECT531, 24 h, read-out: Minimal Inhibition Concentration (MIC) C. difficile CECT531.
In a further data set the test system is E. faecalis V583. Kind of data set: microbe, parasite or virus in culture. To be noted: Enterococcus faecalis, V583, 20 h, read-out: Minimal Inhibition Concentration (MIC) E. faecalis V583. It is filed as cell-based, Enterococcus faecalis.
Data set [1] concerns B. cereus ATCC10987. As to the kind of experiment: microbe, parasite or virus in culture. It is filed as cell-based, Bacillus cereus. To be noted: Bacillus cereus, ATCC10987, 20 h, read-out: Minimal Inhibition Concentration (MIC) B. cereus ATCC10987.
A further data set concerns E. faecium LMG16003. Kind of data set: microbe, parasite or virus in culture. It is filed as cell-based. To be noted: Enterococcus faecium, LMG16003, 20 h, read-out: Minimal Inhibition Concentration (MIC) E. faecium LMG16003.
A further data set relates to C. perfringens CECT376. Kind of data set: microbe, parasite or virus in culture. To be noted: Clostridium perfringens, CECT376, 24 h, read-out: Minimal Inhibition Concentration (MIC) C. perfringens CECT376. The data set is classed as cell-based.
A further data set has as its system B. cereus ATCC14579. Kind of data set: microbe, parasite or virus in culture. It is filed as cell-based, Bacillus cereus. To be noted: Bacillus cereus, ATCC14579, 20 h, read-out: Minimal Inhibition Concentration (MIC) B. cereus ATCC14579.
Another data set concerns E. faecium LMG11423. As to the kind of experiment: microbe, parasite or virus in culture. The data set is classed as cell-based. To be noted: Enterococcus faecium, LMG11423, 20 h, read-out: Minimal Inhibition Concentration (MIC) E. faecium LMG11423.
For another data set, the system named is S.aureus LMG10147. Kind of data set: microbe, parasite or virus in culture. To be noted: Staphylococcus aureus, LMG10147, 20 h, read-out: Minimal Inhibition Concentration (MIC) S.aureus LMG10147. It is filed as cell-based, Staphylococcus aureus.
A further data set concerns E. faecalis LMG16216. As to the kind of experiment: microbe, parasite or virus in culture. It is filed as cell-based, Enterococcus faecalis. To be noted: Enterococcus faecalis, LMG16216, 20 h, read-out: Minimal Inhibition Concentration (MIC) E. faecalis LMG16216.
A further data set has as its system C. ihumii AP5. As to the kind of experiment: MIC test, anaerobes. The data set is classed as cell-based. On the procedure:
(§1) The resveratrol derivatives were serially diluted in cMHB (BD Difco) in 96-well microplates. Plates were then inoculated with the indicator bacteria at a final concentration of 5 × 10^5 CFU/mL and incubated at 37 °C for 20 h. In the case of the anaerobic bacteria (Clostridium and Clostridioides), the test was performed following the recommendation of CLSI for anaerobes[77] but using RCM medium instead of cMHB. The cultures were cultivated inside an anaerobic chamber at 37 °C for 24 h. All the tests were performed in triplicate.

A further data set deals with C. beijerinckii B504. Kind of data set: MIC test, anaerobes. The data set is classed as cell-based. As to the method:
as §1

The test system of the next data set is E. faecalis LMG08222. Kind of data set: microbe, parasite or virus in culture. To be noted: Enterococcus faecalis, LMG08222, 20 h, read-out: Minimal Inhibition Concentration (MIC) E. faecalis LMG08222. It is filed as cell-based, Enterococcus faecalis.
For a further data set, the system named is S.aureus LMG8224. Kind of data set: microbe, parasite or virus in culture. The data set is classed as cell-based, Staphylococcus aureus. To be noted: Staphylococcus aureus, LMG8224, 20 h, read-out: Minimal Inhibition Concentration (MIC) S.aureus LMG8224.
The test system of a further data set is E. coli LMG8224. Kind of data set: Outer membrane permeabilization test (MIC with or without L-11 peptide). To be noted: for MIC: Escherichia coli, LMG8224, read-out: MIC (μM) L-11 + 0 μM; for MIC (μM) L-11 + 4 μM: presence of 4 μM L-11 outer-membrane-perturbing peptide.
The test system of data set [2] is panel of aerobic and anaerobic Gram-positive bacteria. Kind of data set: organism not typed. The data set is classed as cell-based.
A further data set concerns S.aureus LMG15975. As to the kind of experiment: microbe, parasite or virus in culture. The data set is classed as cell-based, Staphylococcus aureus. To be noted: Staphylococcus aureus, LMG15975, 20 h, read-out: Minimal Inhibition Concentration (MIC) S.aureus LMG15975.
The next data set concerns C. tetani CECT4629. As to the kind of experiment: microbe, parasite or virus in culture. To be noted: Clostridium tetani, CECT4629, 24 h, read-out: Minimal Inhibition Concentration (MIC) C. tetani CECT4629. It is filed as cell-based.
Another data set is described as follows: in vitro. To be noted: human.
Data set [3] deals with B. cereus ATCC 10987, E. faecalis V583, E. faecium LMG 16003, and S. aureus LMG 8224. The data set is classed as cell-based. To be noted: 2-fold the MIC, 24 h, cMHB.
For data set [4], the system named is B. cereus ATCC10987. As to the kind of experiment: Effect of the compounds on actively growing bacteria (lysis, OD600). The data set is classed as cell-based, Bacillus cereus. To be noted: 2×, 1×, and 0.5× the MIC added at mid exponential phase.
The mark [5] stands for this setting: 24 h; read-out: Minimal Inhibition Concentration (MIC) C. ihumii AP5.
The mark [6] stands for this setting: Clostridium beijerinckii, B504, 24 h; read-out: Minimal Inhibition Concentration (MIC) C. beijerinckii B504.

In brackets after ≈: the same amount, converted by molar mass. Where two headings read alike, the source gives them in different places. Where only a bound is given, the exact number is not on record here.

Consider `CCCCCCCCCCCC(=O)OC[C@H]1O[C@@H](Oc2cc(O)cc(/C=C/c3ccc(O)cc3)c2)[C@H](O)[C@@H](O)[C@@H]1O` [compound 4], for which the MIC was found to be 8 µM (≈ 4.58 µg/mL) with C. botulinum CECT551; 128 µM (≈ 73.3 µg/mL) in the data set with C. difficile CECT531; 53.3 ± 10.6 µM (≈ 30.5 µg/mL) with E. faecalis V583; 8 µM (≈ 4.58 µg/mL) with B. cereus ATCC10987 [1]; 53.3 ± 10.6 µM (≈ 30.5 µg/mL) in the data set on E. faecium LMG16003; 32 µM (≈ 18.3 µg/mL) with C. perfringens CECT376. Moreover, the MIC with B. cereus ATCC14579 amounted to 8 µM (≈ 4.58 µg/mL); with E. faecium LMG11423, 53.3 ± 10.6 µM (≈ 30.5 µg/mL); in the data set with S.aureus LMG10147, 16 µM (≈ 9.16 µg/mL); in the data set with E. faecalis LMG16216, 64 µM (≈ 36.7 µg/mL); in the data set with C. ihumii AP5 (setting [5]), 32 µM (≈ 18.3 µg/mL); with C. beijerinckii B504 (setting [6]), 16 µM (≈ 9.16 µg/mL). Besides, the MIC was 32 µM (≈ 18.3 µg/mL) with E. faecalis LMG08222; 16 µM (≈ 9.16 µg/mL) in the data set on S.aureus LMG8224; more than 128 µM in the data set on E. coli LMG8224; 8 to 16 µM (≈ 4.58 to 9.16 µg/mL) in data set [2]; 16 µM (≈ 9.16 µg/mL) in the data set on S.aureus LMG15975. In addition, the “MIC (μM) L-11 + 4 μM” value in the data set on E. coli LMG8224 turned out to be 6.6 ± 1.3 µM.
Consider `CCCCOc1ccc(/C=C/c2cc(OS(=O)(=O)O)cc(OS(=O)(=O)O)c2)cc1` [compound 14, 4′-butyl-3,5-disulfate resveratrol], for which the MIC in the data set with C. botulinum CECT551 stood at 21.3 ± 5.3 µM (≈ 9.47 µg/mL); with C. difficile CECT531, 32 µM (≈ 14.2 µg/mL); in the data set on C. tetani CECT4629 it was 16 µM (≈ 7.11 µg/mL); in the data set with E. faecalis V583, 64 µM (≈ 28.4 µg/mL); in the data set with B. cereus ATCC10987 [1] it was 128 µM (≈ 56.9 µg/mL); in the data set with E. faecium LMG16003 it was 64 µM (≈ 28.4 µg/mL). The MIC in the data set with C. perfringens CECT376 is 32 µM (≈ 14.2 µg/mL); in the data set on B. cereus ATCC14579 it was 128 µM (≈ 56.9 µg/mL); in the data set with E. faecium LMG11423, 32 µM (≈ 14.2 µg/mL); in the data set on S.aureus LMG10147 it was 32 µM (≈ 14.2 µg/mL); in the data set with E. faecalis LMG16216, 16 µM (≈ 7.11 µg/mL); with C. ihumii AP5 (setting [5]), 32 µM (≈ 14.2 µg/mL). The MIC stood at 16 µM (≈ 7.11 µg/mL) in the data set on C. beijerinckii B504 (setting [6]), 32 µM (≈ 14.2 µg/mL) with E. faecalis LMG08222, 32 µM (≈ 14.2 µg/mL) in the data set on S.aureus LMG8224 and 32 µM (≈ 14.2 µg/mL) in the data set on S.aureus LMG15975. In data set [2], the “antibacterial activity against the Gram-positive panel” value was “active against all Gram-positive bacterial strains examined”.
In the case of `CC[Si](CC)(CC)Oc1ccc(/C=C/c2cc(O)cc(O)c2)cc1` [compound 31], inhibition in the data set “in vitro” was half-maximal at 32.1 ± 0.9 µM (IC50).
Turning to `CC(C)[Si](Oc1ccc(/C=C/c2cc(O)cc(O)c2)cc1)(C(C)C)C(C)C` [compound 33], the MIC in the data set on C. botulinum CECT551 was 10.7 ± 2.6 µM (≈ 4.12 µg/mL); in the data set on C. difficile CECT531, 16 µM (≈ 6.15 µg/mL); in the data set with C. tetani CECT4629, 6.7 ± 1.3 µM (≈ 2.58 µg/mL); in the data set on E. faecalis V583, 21.3 ± 5.3 µM (≈ 8.19 µg/mL); in the data set on B. cereus ATCC10987 [1] it was 32 µM (≈ 12.3 µg/mL); with E. faecium LMG16003, 5.3 ± 1.3 µM (≈ 2.04 µg/mL). The MIC came to 26.6 ± 5.3 µM (≈ 10.2 µg/mL) in the data set with C. perfringens CECT376; 26.6 ± 5.3 µM (≈ 10.2 µg/mL) with B. cereus ATCC14579; 16 µM (≈ 6.15 µg/mL) with E. faecium LMG11423; 128 µM (≈ 49.2 µg/mL) in the data set on S.aureus LMG10147; 8 µM (≈ 3.08 µg/mL) with E. faecalis LMG16216; 13.3 ± 2.6 µM (≈ 5.12 µg/mL) in the data set on C. ihumii AP5 (setting [5]). Besides, the MIC in the data set on C. beijerinckii B504 (setting [6]) was 21.3 ± 5.3 µM (≈ 8.19 µg/mL); in the data set with E. faecalis LMG08222 it was 8 µM (≈ 3.08 µg/mL); with S.aureus LMG8224, 128 µM (≈ 49.2 µg/mL); with E. coli LMG8224, more than 128 µM; with S.aureus LMG15975 it was 128 µM (≈ 49.2 µg/mL). The bactericidal/bacteriostatic effect entry in data set [3] is on record as “bactericidal”. It took 2.8 ± 0.2 µM to reach half-maximal inhibition in “in vitro” (IC50). For the same compound, in the data set with E. coli LMG8224, the “MIC (μM) L-11 + 4 μM” value turned out to be 21.3 ± 5.3 µM. Besides, the “lysis of actively growing cells” value with B. cereus ATCC10987 [4] is listed as “most effective derivatives lysing the cells”.
In the case of `CC(C)[Si](Oc1cc(/C=C/c2ccc(OS(=O)(=O)O)cc2)cc(OS(=O)(=O)O)c1)(C(C)C)C(C)C` [compound 35, 3,4′-Disulfate-5-triisopropylsilyl resveratrol], the MIC was 64 µM (≈ 34.9 µg/mL) in the data set with C. botulinum CECT551; 32 µM (≈ 17.4 µg/mL) in the data set with C. difficile CECT531; 64 µM (≈ 34.9 µg/mL) with C. tetani CECT4629; 16 µM (≈ 8.72 µg/mL) in the data set on E. faecalis V583; 16 µM (≈ 8.72 µg/mL) in the data set on B. cereus ATCC10987 [1]; 13.3 ± 2.6 µM (≈ 7.24 µg/mL) in the data set on E. faecium LMG16003. In addition, the MIC was determined as 64 µM (≈ 34.9 µg/mL) with C. perfringens CECT376; 21.3 ± 5.3 µM (≈ 11.6 µg/mL) in the data set on B. cereus ATCC14579; 16 µM (≈ 8.72 µg/mL) with E. faecium LMG11423; 21.3 ± 5.3 µM (≈ 11.6 µg/mL) in the data set on S.aureus LMG10147; 8 µM (≈ 4.36 µg/mL) in the data set on E. faecalis LMG16216; 64 µM (≈ 34.9 µg/mL) with C. ihumii AP5 (24 h, read-out: Minimal Inhibition Concentration (MIC) C. ihumii AP5). Moreover, the MIC was 64 µM (≈ 34.9 µg/mL) with C. beijerinckii B504 (Clostridium beijerinckii, B504, 24 h, read-out: Minimal Inhibition Concentration (MIC) C. beijerinckii B504); 13.3 ± 2.6 µM (≈ 7.24 µg/mL) in the data set on E. faecalis LMG08222; 13.3 ± 2.6 µM (≈ 7.24 µg/mL) with S.aureus LMG8224; more than 128 µM with E. coli LMG8224; 16 µM (≈ 8.72 µg/mL) in the data set with S.aureus LMG15975. Moreover, the “MIC (μM) L-11 + 4 μM” value with E. coli LMG8224 was determined as 21.6 ± 5.3 µM.

These data come from article PMC9237828, “Chemically Tuning Resveratrol for the Effective Killing of Gram-Positive Pathogens” (Journal of Natural Products, 2022).
